Experimental findings from publication PMC7525151 (Frontiers in Microbiology, 2020) are described below.

In general, Km refers to the substrate concentration at which the rate is half of its maximum.

Each structure is given as a SMILES string.

One assay deals with T1, CmFUM (Cyanidioschyzon merolae, UniProt M1VAI8).
T1 construct: gene CYME_CMD058C; N-terminal GST tag (pGEX6P-1, BamHI-XhoI) kept; codon-optimized synthetic gene; E. coli BL21(DE3); glutathione-Sepharose purified
Put plainly: A240 absorbance, Michaelis-Menten fit. The class given is biochemical. The following applies: fumarate hydration; 100 mM Tris-HCl pH 7.5; 52 °C.

Assay [1] has as its target T2, TeFum (Thermosynechococcus vestitus, UniProt Q8DIP7). Put plainly: A240 absorbance, Michaelis-Menten fit. It counts as biochemical. The arrangement: gene fumC; N-terminal GST tag (pGEX6P-1, BamHI-XhoI) kept; codon-optimized synthetic gene; E. coli BL21(DE3); glutathione-Sepharose purified. The following applies: fumarate hydration; 100 mM Tris-HCl pH 7.0; 50 °C.
The target of assay [2] is T2, TeFum. Put plainly: relative activity with effector, A240 absorbance. The following applies: activator in the fumarate direction; 0.14 mM fumarate, pH 7.0, 50 °C; sodium salt. On the set-up: gene fumC.

T2 sequence (Q8DIP7 whole entry): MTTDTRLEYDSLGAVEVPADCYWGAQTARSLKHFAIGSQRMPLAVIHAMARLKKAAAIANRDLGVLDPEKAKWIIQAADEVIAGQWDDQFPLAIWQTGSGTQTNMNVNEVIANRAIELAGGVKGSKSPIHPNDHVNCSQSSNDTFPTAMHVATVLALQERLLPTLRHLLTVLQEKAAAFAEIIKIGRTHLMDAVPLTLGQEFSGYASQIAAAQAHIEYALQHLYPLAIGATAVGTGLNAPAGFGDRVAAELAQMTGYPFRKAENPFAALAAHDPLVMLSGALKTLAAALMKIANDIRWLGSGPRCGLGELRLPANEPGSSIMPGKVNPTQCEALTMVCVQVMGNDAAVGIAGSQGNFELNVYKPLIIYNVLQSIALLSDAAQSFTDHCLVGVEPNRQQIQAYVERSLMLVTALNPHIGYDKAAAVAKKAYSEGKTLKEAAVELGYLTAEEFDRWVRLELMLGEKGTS
T1 sequence (M1VAI8 1-553): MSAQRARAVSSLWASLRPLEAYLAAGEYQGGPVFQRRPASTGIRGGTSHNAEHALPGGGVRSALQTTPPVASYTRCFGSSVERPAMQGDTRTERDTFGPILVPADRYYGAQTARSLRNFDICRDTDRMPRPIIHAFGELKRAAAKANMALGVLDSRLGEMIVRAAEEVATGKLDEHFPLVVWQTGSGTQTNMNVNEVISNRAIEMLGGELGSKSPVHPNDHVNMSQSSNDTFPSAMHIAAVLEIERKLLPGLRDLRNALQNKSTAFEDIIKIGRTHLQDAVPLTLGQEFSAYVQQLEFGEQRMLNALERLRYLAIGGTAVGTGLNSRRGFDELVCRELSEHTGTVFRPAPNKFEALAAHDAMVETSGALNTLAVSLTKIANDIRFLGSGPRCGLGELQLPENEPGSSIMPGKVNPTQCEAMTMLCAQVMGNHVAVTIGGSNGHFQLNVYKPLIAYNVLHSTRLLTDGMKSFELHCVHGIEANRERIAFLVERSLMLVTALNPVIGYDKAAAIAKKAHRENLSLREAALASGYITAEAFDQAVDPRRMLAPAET

With `O=C(O)/C=C/C(=O)O` [fumarate], the Michaelis constant (Km) at CmFUM was 270 ± 50 µM; on TeFum [1], 140 ± 20 µM.
With `CC(=O)C(=O)O` [pyruvate], the relative activity result on TeFum [2] is listed as “pyruvate increased the TeFum activity for fumarate (Figure 4B)”.
